Data as given in patent US20230190735A1 (TFF Pharmaceuticals, Inc., priority 2021, published 2023).
Like-named read-outs stand apart in the source and are kept apart here.

Key:
CYP2C9 = CYP2C9 (Homo sapiens, UniProt P11712); conditions: in vitro studies; cited from earlier work
CYP3A [1] = biological target: CYP3A (Homo sapiens, UniProt P08684); conditions: in vitro studies; CYP3A4; cited from earlier work
[2] = cited from earlier work; for reduction of mean AUC with high-fat meals: multiple doses
[3] = major metabolite of voriconazole; cited from earlier work
[4] = PK of systemically administered (oral or IV) voriconazole, VFEND package insert and literature; format: in vivo, human; conditions: Imax = Cmax/MW
CYP2B6 = biological target: T1, CYP2B6 (Homo sapiens, UniProt P20813); conditions: total drug, Ki values based on Jeong 2009; cited from earlier work
T1 sequence (P20813 1-491): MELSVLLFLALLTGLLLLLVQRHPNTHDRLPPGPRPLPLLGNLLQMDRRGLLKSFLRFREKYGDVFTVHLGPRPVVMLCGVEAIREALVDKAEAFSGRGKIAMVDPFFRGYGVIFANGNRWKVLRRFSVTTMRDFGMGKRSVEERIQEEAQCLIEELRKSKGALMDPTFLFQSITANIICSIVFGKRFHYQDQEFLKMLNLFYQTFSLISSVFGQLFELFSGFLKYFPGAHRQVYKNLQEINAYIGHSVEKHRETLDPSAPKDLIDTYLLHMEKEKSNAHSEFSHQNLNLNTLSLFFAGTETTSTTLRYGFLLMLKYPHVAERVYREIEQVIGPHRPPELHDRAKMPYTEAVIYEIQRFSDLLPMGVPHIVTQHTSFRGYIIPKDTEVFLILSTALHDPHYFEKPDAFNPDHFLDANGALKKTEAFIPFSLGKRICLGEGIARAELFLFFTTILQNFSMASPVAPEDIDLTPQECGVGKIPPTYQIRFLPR

CYP3A [5] = conditions: CYP3A; total drug; Ki values based on Jeong 2009; cited from earlier work
[6] = independent of plasma concentration (approx. 0.9-15 μg/mL); cited from earlier work
[7] = 3 mg/kg IV q12h, geometric mean (% CV)
[8] = 4 mg/kg IV q12h, geometric mean (% CV)
[9] = 6 mg/kg IV (loading dose), geometric mean (% CV)
[10] = 200 mg oral q12h, geometric mean (% CV)
[11] = 300 mg oral q12h, geometric mean (% CV)
[12] = 400 mg oral (loading dose), geometric mean (% CV)

CYP3A (Homo sapiens, UniProt P08684), sequence (P08684 2-503): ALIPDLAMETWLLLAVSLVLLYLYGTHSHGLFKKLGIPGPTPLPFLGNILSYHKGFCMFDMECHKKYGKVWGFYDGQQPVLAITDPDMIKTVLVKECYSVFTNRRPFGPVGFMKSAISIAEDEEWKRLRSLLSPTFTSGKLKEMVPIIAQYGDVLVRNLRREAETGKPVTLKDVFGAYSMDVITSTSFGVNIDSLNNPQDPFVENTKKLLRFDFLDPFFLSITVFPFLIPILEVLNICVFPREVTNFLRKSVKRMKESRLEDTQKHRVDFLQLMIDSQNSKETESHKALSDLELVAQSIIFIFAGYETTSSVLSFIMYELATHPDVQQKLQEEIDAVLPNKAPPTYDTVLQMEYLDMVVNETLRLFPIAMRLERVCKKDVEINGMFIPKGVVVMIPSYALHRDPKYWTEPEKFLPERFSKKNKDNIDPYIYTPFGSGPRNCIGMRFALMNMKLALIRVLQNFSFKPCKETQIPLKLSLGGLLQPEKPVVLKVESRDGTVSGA
CYP2C9, sequence (P11712 whole entry): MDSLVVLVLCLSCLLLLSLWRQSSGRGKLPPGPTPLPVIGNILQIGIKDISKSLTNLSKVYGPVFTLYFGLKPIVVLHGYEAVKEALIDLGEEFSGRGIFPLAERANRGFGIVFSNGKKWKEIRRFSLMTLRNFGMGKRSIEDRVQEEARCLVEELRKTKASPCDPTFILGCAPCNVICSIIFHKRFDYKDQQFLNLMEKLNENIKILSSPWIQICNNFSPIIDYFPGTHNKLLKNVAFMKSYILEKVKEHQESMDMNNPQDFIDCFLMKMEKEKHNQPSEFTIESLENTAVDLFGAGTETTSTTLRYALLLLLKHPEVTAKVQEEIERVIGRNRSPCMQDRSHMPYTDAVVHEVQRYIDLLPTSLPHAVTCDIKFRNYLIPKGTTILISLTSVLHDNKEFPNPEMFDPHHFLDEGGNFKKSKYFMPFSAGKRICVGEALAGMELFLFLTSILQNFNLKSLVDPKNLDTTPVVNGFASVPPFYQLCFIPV

C[C@@H](c1nc[n+]([O-])cc1F)[C@](O)(Cn1cncn1)c1ccc(F)cc1F [N-oxide]
inhibition of metabolic activity of CYP2C9 (CYP2C9): inhibits | inhibition of metabolic activity of CYP3A4 (CYP3A [1]): inhibits | share of circulating radiolabeled metabolites in plasma ([2]; after radiolabeled voriconazole): 72% | antifungal activity [3]: minimal antifungal activity

C[C@@H](c1ncncc1F)[C@](O)(Cn1cncn1)c1ccc(F)cc1F [Voriconazole, (2R,3S)-2-(2,4-difluro-phenyl)-3-(5-flouro-4-pyrimidinyl)-1 (1H-1,2,4-triazol-1-yl)2-butanol]
Imax oral ([4]; based on 200 mg q12h from VFEND label): 6.61 µM | Imax oral ([4]; based on Cmax from Anderson 2017): 3.50 µM | Ki (CYP2B6): < 500 nM | Ki (CYP3A [5]): 660 nM | AUC12 [2, 7]: 13.7 (53) μg:h/mL | Cmax [2, 7]: 3.03 (25) μg/mL | AUC12 [2, 8]: 33.9 (54) μg:h/mL | Cmax [2, 8]: 4.77 (36) μg/mL | AUC12 [2, 9]: 13.9 (32) μg:h/mL | Cmax [2, 9]: 3.13 (20) μg/mL | AUC12 ([2]; 200 mg oral q12h, adults, geometric mean (% CV)): 12.4 (78) μg · h/mL | AUC12 [2, 10]: 12.4 (78) μg:h/mL | Cmax [2, 10]: 2.31 (48) μg/mL | AUC12 ([2]; 300 mg oral q12h, adults, geometric mean (% CV)): 34.0 (53) μg · h/mL | AUC12 [2, 11]: 34.0 (53) μg:h/mL | Cmax [2, 11]: 4.74 (35) μg/mL | AUC12 ([2]; 400 mg oral (loading dose), adults, geometric mean (% CV)): 9.31 (38) μg · h/mL | AUC12 [2, 12]: 9.31 (38) μg:h/mL | Cmax [2, 12]: 2.30 (19) μg/mL | reduction of mean AUC with high-fat meals ([2]; oral suspension): 37% | reduction of mean AUC with high-fat meals ([2]; tablet): 24% | Cmax ([2]; oral 200 mg dose): 2310 ng/mL | volume of distribution at steady state ([2]; oral or IV administration): 4.6 L/kg | oral bioavailability ([2]; population PK analysis, healthy subjects (N=207)): 96% | Plasma protein binding [6]: 58%
